# Results as given in US20240325398A1, “COMBINATION THERAPIES” (Infinity Pharmaceuticals, Inc., priority 2014, published 2024).
# Key:
# [1] = test system: KARPAS-299; assay: Combination study, ATPLite 72 h, dose matrix (Synergy Score, CI50); conditions: combination with Compound 1
# [2] = test system: U-2932; assay: as above; conditions: combination with Compound 1, 72 h
# [3] = test system: OMP-2; assay: as above; conditions: combination with Compound 1; OPM-2
# [4] = as above; conditions: combination with Compound 1; OPM-2
# [5] = test system: GRANTA-519; assay: as above; conditions: combination with Compound 1
# [6] = test system: TMD8; assay: as above; conditions: combination with Compound 1; TMD8; 72 h
# Experimental: (§1) Cells are thawed from a liquid nitrogen preserved state. Once cells have been expanded and divide at their expected doubling times, screening begins. Cells are seeded in growth media in either black 1536-well or 384-well tissue culture treated plates. Cells are then equilibrated in assay plates via centrifugation and placed in incubators attached to the Dosing Modules at 37° C. for 24 hours before treatment. […] These Tzero (To) plates are read using ultra-sensitive luminescence on Envision plate readers (Perkin Elmer). Treated assay plates are incubated with compound for 72 hours. After 72 hours, plates are developed for endpoint analysis using ATPLite. All data points are collected via automated processes, quality controlled and analyzed using Zalicus software.
# (§2) where T is treated cell count and V is untreated (vehicle) cell count (at 72 hours). I ranges from 0% (when T=V) to 100% (when T=0). […] The measure of effect in the experiment can be the inhibition of cellular response relative to the untreated level (vehicle alone). […] The inhibition ranges from 0% at the untreated level to 100% when T=0. Inhibition levels are negative for agents that actually increase levels. Other effect measures, such as an activity ratio r=T/V may be more appropriate for some assays. When activity ratios (e.g, fold increase over stimulated control) are being used, the effect can be measured using an induction 1=ln(T/V). With this definition, all effect expressions are the same as for inhibition.
# (§3) Growth Inhibition (GI) is used as a measure of cell viability. […] A GI reading of 100% represents complete growth inhibition—T72 compound-treated and T0 vehicle signals are matched. […] A GI reading of 200% represents complete death of all cells in the culture well. Compounds reaching an activity plateau of GI 200% are considered cytotoxic. GI is calculated by applying the following test and equation:
# (§4) Combination analysis data were collected in a 6×6 dose matrix. Synergy is calculated by comparing a combination's response to those of its single compound, against the drug-with-itself dose-additive reference model. Deviations from dose additivity may be assessed visually on an isobologram or numerically with a Combination Index (CI). […] Additive effect is CI=1.0. […] Antagonistic effect is CI>1.0.
# The isobologram was drawn by identifying the locus of concentrations that correspond to crossing the indicated inhibition level. This is done by finding the crossing point for each single agent concentration in a dose matrix across the concentrations of the other single agent. Practically, each vertical concentration CY is held fixed while a bisection algorithm is used to identify the horizontal concentration CX in combination with that vertical dose that gives the chosen effect level in the response surface Z(CX,CY). These concentrations are then connected by linear interpolation to generate the isobologram display. For synergistic interactions, the isobologram contour fall below the additivity threshold and approaches the origin, and an antagonistic interaction would lie above the additivity threshold. The error bars represent the uncertainty arising from the individual data points used to generate the isobologram. The uncertainty for each crossing point is estimated from the response errors using bisection to find the concentrations where Z−αZ(CX,CY) and Z+σZ(CX,CY) cross Icut, where αZ is the standard deviation of the residual error on the effect scale.
# (§5) To measure combination effects in excess of Loewe additivity, a scalar measure to characterize the strength of synergistic interaction termed the Synergy Score is devised. The Synergy Score is calculated as:
# The fractional inhibition for each component agent and combination point in the matrix is calculated relative to the median of all vehicle-treated control wells.
# [7] = test system: WSU-NHL; assay: as above; conditions: combination with Compound 1, 72 h
# [8] = test system: OCI-Ly7; assay: as above; conditions: combination with Compound 1, 72 h
# [9] = test system: Farage; assay: as above; conditions: combination with Compound 1; Farage; 72 h
# [10] = test system: SU-DHL-4-epst; assay: as above; conditions: combination with Compound 1, 72 h
# Experimental: as §1
# (§6) The measure of effect in the experiment can be the inhibition of cellular response relative to the untreated level (vehicle alone). […] The inhibition ranges from 0% at the untreated level to 100% when T=0. Inhibition levels are negative for agents that actually increase levels.
# as §3, §4, §5
# (§7) The fractional inhibition for each component agent and combination point in the matrix is calculated relative to the median of all vehicle-treated control wells. The Synergy Score equation integrates the experimentally-observed activity volume at each point in the matrix in excess of a model surface numerically derived from the activity of the component agents using the Loewe model for additivity. Additional terms in the Synergy Score equation (above) are used to normalize for various dilution factors used for individual agents and to allow for comparison of synergy scores across an entire experiment. The inclusion of positive inhibition gating or an Idata multiplier removes noise near the zero effect level, and biases results for synergistic interactions at that occur at high activity levels.
# (§8) Loewe Volume (Loewe Vol) is used to assess the overall magnitude of the combination interaction in excess of the Loewe additivity model. Loewe Volume is particularly useful when distinguishing synergistic increases in a phenotypic activity (positive Loewe Volume) versus synergistic antagonisms (negative Loewe Volume). […] This model defines additivity as a non-synergistic combination interaction where the combination dose matrix surface should be indistinguishable from either drug crossed with itself. The calculation for Loewe additivity is:
# [11] = test system: KARPAS-422; assay: as above; conditions: combination with Compound 1, 72 h
# [12] = test system: NCI-H929; assay: as above; conditions: combination with Compound 1
# [13] = test system: OCI-Ly3; assay: as above; conditions: combination with Compound 1; OCI-Ly3; 72 h
# [14] = test system: SU-DHL-10-epst; assay: as above; conditions: combination with Compound 1, 72 h
# [15] = test system: HBL-1; assay: as above; conditions: combination with Compound 1, 72 h
# Experimental: as §1, §2, §3, §4, §5, §7, §8
# [16] = test system: RPMI-8226; assay: as above; conditions: combination with Compound 1
# [17] = test system: Mino; assay: as above; conditions: combination with Compound 1
# [18] = test system: HH; assay: as above; type: cell-based; conditions: combination with Compound 1
# Experimental: The method is described as follows.
# Additive effect is CI=1.0. […] Antagonistic effect is CI>1.0.
# The Synergy Score is calculated as: […]
# [19] = test system: Jeko-1; assay: as above; conditions: combination with Compound 1
# [20] = test system: DOHH-2; assay: as above; conditions: combination with Compound 1, 72 h
# Experimental: as §1, §6, §3, §4, §5, §7, §8
# [21] = test system: RL; assay: as above; conditions: combination with Compound 1, 72 h
smiles,measurement,setting,value
"Nc1cccc2c1CN(C1CCC(=O)NC1=O)C2=O (stereo not drawn) [lenalidomide, 3-(4-Amino-1-oxo 1,3-dihydro-2H-isoindol-2-yl)piperidine-2,6-dione]",Synergy Score growth inhibition,[1],A1 (A1=0.0001 to <1)
same,Synergy Score inhibition,[1],A1 (A1=0.0001 to <1)
same,CI50 growth inhibition,[2],U (U=0.7 to <1)
same,Synergy Score growth inhibition,[2],A1 (A1=0.0001 to <1)
same,Synergy Score inhibition,[2],A1 (A1=0.0001 to <1)
same,Synergy Score growth inhibition,[3],A2 (A2=1 to <3)
same,Synergy Score inhibition,[3],A1 (A1=0.0001 to <1)
same,CI50 growth inhibition,[4],S (S=0.01 to <0.5)
same,Synergy Score growth inhibition,[5],A1 (A1=0.0001 to <1)
same,Synergy Score inhibition,[5],A1 (A1=0.0001 to <1)
same,CI50 growth inhibition,[6],S (S=0.01 to <0.5)
same,CI50 inhibition,[6],S (S=0.01 to <0.5)
same,Synergy Score growth inhibition,[6],A3 (A3=>3)
same,Synergy Score inhibition,[6],A3 (A3=>3)
same,CI50 growth inhibition,[7],T (T=0.5 to <0.7)
same,CI50 inhibition,[7],S (S=0.01 to <0.5)
same,Synergy Score growth inhibition,[7],A3 (A3=>3)
same,Synergy Score inhibition,[7],A2 (A2=1 to <3)
same,Synergy Score growth inhibition,[8],A1 (A1=0.0001 to <1)
same,Synergy Score inhibition,[8],A1 (A1=0.0001 to <1)
same,CI50 growth inhibition,[9],W (W=≥1)
same,CI50 inhibition,[9],W (W=≥1)
same,Synergy Score growth inhibition,[9],A2 (A2=1 to <3)
same,Synergy Score inhibition,[9],A1 (A1=0.0001 to <1)
same,CI50 growth inhibition,[10],W (W=≥1)
same,CI50 inhibition,[10],T (T=0.5 to <0.7)
same,Synergy Score growth inhibition,[10],A2 (A2=1 to <3)
same,Synergy Score inhibition,[10],A1 (A1=0.0001 to <1)
same,CI50 growth inhibition,[11],S (S=0.01 to <0.5)
same,CI50 inhibition,[11],S (S=0.01 to <0.5)
same,Synergy Score growth inhibition,[11],A2 (A2=1 to <3)
same,Synergy Score inhibition,[11],A2 (A2=1 to <3)
same,CI50 growth inhibition,[12],T (T=0.5 to <0.7)
same,CI50 inhibition,[12],S (S=0.01 to <0.5)
same,Synergy Score growth inhibition,[12],A3 (A3=>3)
same,Synergy Score inhibition,[12],A3 (A3=>3)
same,CI50 growth inhibition,[13],W (W=≥1)
same,Synergy Score growth inhibition,[13],A1 (A1=0.0001 to <1)
same,Synergy Score inhibition,[13],A1 (A1=0.0001 to <1)
same,CI50 growth inhibition,[14],T (T=0.5 to <0.7)
same,CI50 inhibition,[14],T (T=0.5 to <0.7)
same,Synergy Score growth inhibition,[14],A2 (A2=1 to <3)
same,Synergy Score inhibition,[14],A2 (A2=1 to <3)
same,CI50 growth inhibition,[15],W (W=≥1)
same,Synergy Score growth inhibition,[15],A1 (A1=0.0001 to <1)
same,Synergy Score inhibition,[15],A1 (A1=0.0001 to <1)
same,Synergy Score growth inhibition,[16],A1 (A1=0.0001 to <1)
same,Synergy Score inhibition,[16],A1 (A1=0.0001 to <1)
same,CI50 growth inhibition,[17],T (T=0.5 to <0.7)
same,CI50 inhibition,[17],W (W=≥1)
same,Synergy Score growth inhibition,[17],A2 (A2=1 to <3)
same,Synergy Score inhibition,[17],A1 (A1=0.0001 to <1)
same,CI50 growth inhibition,[18],W (W=≥1)
same,CI50 inhibition,[18],T (T=0.5 to <0.7)
same,Synergy Score growth inhibition,[18],A2 (A2=1 to <3)
same,Synergy Score inhibition,[18],A1 (A1=0.0001 to <1)
same,CI50 growth inhibition,[19],S (S=0.01 to <0.5)
same,CI50 inhibition,[19],T (T=0.5 to <0.7)
same,Synergy Score growth inhibition,[19],A2 (A2=1 to <3)
same,Synergy Score inhibition,[19],A2 (A2=1 to <3)
same,CI50 growth inhibition,[20],S (S=0.01 to <0.5)
same,CI50 inhibition,[20],S (S=0.01 to <0.5)
same,Synergy Score growth inhibition,[20],A3 (A3=>3)
same,Synergy Score inhibition,[20],A2 (A2=1 to <3)
same,Synergy Score growth inhibition,[21],A1 (A1=0.0001 to <1)
same,Synergy Score inhibition,[21],A1 (A1=0.0001 to <1)
